Source: PubChem BioAssay AID588394 (NMMLSC, 2011)
Activity calls are given as the source filed them.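 The calls were made as follows: active = half-maximal effective concentration at most 10 microM and response span at least 30% from a well-fitted curve; inactive = the rest.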

Target: Rab7 GTPase wild-type (Canis lupus familiaris), GST fusion
Assay: Rab7 wildtype GTP binding inhibitors, SAR follow-up, biochemical, dog Rab7, bead multiplex flow cytometry, round 1 (AID 588394)
Conditions: Bead-based flow cytometry, Bodipy-FL-GTP binding, EDTA; for percent response, lower = inhibition: at 100 µM (top of the series)

SMILES	percent response, lower = inhibition	EC50 [µM]
Cc1ccc(NC(=O)Nc2sc3c(c2C(=O)O)CCN(C)C3)cc1	inactive	
CC1(C)Cc2c(sc(NC(=S)NC(=O)c3ccccc3F)c2C(=O)O)CO1		0.056
CCOC(=O)c1c(NC(=O)Nc2ccc(C)cc2)sc2c1CCN(C)C2	inactive	
CC1(C)Cc2c(sc(NC(=S)NC(=O)c3ccc(Br)cc3)c2C(=O)O)CO1		0.269
CC1(C)Cc2c(sc(NC(=S)NC(=O)c3cccc(Br)c3)c2C(=O)O)CO1		2.28
COc1cccc(C(=O)NC(=S)Nc2sc3c(c2C(=O)O)CC(C)(C)OC3)c1		0.055
CCOC(=O)c1c(NC(=O)Nc2ccc(F)cc2)sc2c1CCN(C)C2	inactive	
Cc1ccc(Nc2nc3sc4c(c3c(=O)o2)CCN(C)C4)cc1	inactive	
CCOC(=O)c1c(NC(=S)NC(=O)c2ccccc2)sc2ccccc12	inactive	
COc1ccc(C(=O)NC(=S)Nc2sc3c(c2C(=O)O)CC(C)(C)OC3)cc1		0.126
CCOC(=O)c1c(NC(=O)NC(C)(C)C)sc2c1CCN(C)C2	inactive	
CC1(C)Cc2c(sc(NC(=S)NC(=O)c3ccccc3Br)c2C(=O)O)CO1		0.046
CC1(C)Cc2c(sc(NC(=S)Nc3ccccc3)c2C(=O)O)CO1	inactive	
COC(=O)c1c(N)sc2c1CC(C)(C)OC2	inactive	
CN1CCc2c(sc3nc(Nc4ccc(F)cc4)oc(=O)c23)C1	inactive	
CC1(C)CCc2sc(NC(=S)NC(=O)c3ccccc3)c(C(=O)O)c2C1		0.072
CCOC(=O)c1c(NC(=S)Nc2ccccc2)sc2c1CC(C)(C)OC2	inactive	
CC1(C)Cc2c(sc(NC(=O)Cc3ccccc3)c2C(=O)O)CO1	inactive	
CC1(C)Cc2c(sc(NC(=S)NC(=O)c3cccc(F)c3)c2C(=O)O)CO1		0.308
CN1CCc2c(sc(NC(=O)Nc3ccc(F)cc3)c2C(=O)O)C1	inactive	
CCOC(=O)c1c(N)sc2ccccc12	inactive	
CC(C)(C)OC(=O)c1c(NC(=S)NC(=O)c2ccccc2)sc2c1CCOC2	inactive	
